Results reported in patent US10842797B2, “Nutraceutical co-crystal compositions” (UNIVERSITY OF SOUTH FLORIDA, priority 2007, dated 2020).

Method: Solubility profiles for co-crystals were determined by UV-vis spectroscopy (Perkin Elmer-Lambda 25 UV-vis spectrometer, 400 nm).
The solubility of KP10 in 1:1 ethanol/water (V/V %) was determined by UV-vis spectroscopy, with a wavelength of 360 nm.
The solubility of KP15 in 1:1 ethanol/water (V/V %) was determined by UV-vis spectroscopy, with a wavelength of 300 nm.

Substance: Co-Crystal of Hesperetin and Iso-Nicotinamide [KP15]
- increase in the solubility of hesperetin in the co-crystal when compared to pure hesperetin: approximately 12 fold

Substance: Co-Crystal of Quercetin and Iso-Nicotinamide [KP10]
- increase in the solubility of quercetin in the co-crystal when compared to quercetin dehydrate: ~6 fold
